The record followed here is PMC6691816, “Discovery of aminopyridine-containing spiro derivatives as EGFR mutations inhibitors” (Journal of Enzyme Inhibition and Medicinal Chemistry, 2019).

One experiment has as its target T1, EGF-R wt (Homo sapiens, UniProt P00533).
T1 construct: purchased ProQinase GmbH
Description: EGFR-wt protein kinase assay (33PanQinase), single concentration. The format is biochemical. The note with it: 0.5 μM (5 × 10^−7 M), singlicate, % of control activity; for remaining activity at 0.5 µM: read-out: Residual activity under 0.5 μM drug concentration (%) EGF-R wt. As to the method: (§1) The inhibitory profile of 16 compounds was determined using two protein kinases. The compounds were tested at a concentration of 5 × 1 0^−7 M, in singlicate. The compounds were solved and diluted to 5 × 10^−5 M stock solutions in 100% DMSO according to the customer-filled CSF. 10 μL of each of the stock solutions were transferred into […] of a 96-well, Column 1 and 2 of the plate were filled with 10 μL100% DMSO. The plate is in the following referred to as “copy plate”. In the process, 90 μL H2O were added to each well of the copy plate. To minimize potential compound precipitation, the H2O was added to each well only a few minutes before the transfer of the compound solutions into the assay plates. The plate was shaken thoroughly, resulting in a “compound dilution plate” with a compound concentration of 5 × 10^−6 M/10% DMSO. This plate was used for the transfer of 5 μL compound solution into the assay plates. The final volume of the assay was 50 μL. All compounds were tested at 5 × 1 0^−7 M in singlicate. The final DMSO concentration in the reaction cocktails was 1% in all cases. The compound dilution plate was disposed.
(§2) A radiometric protein kinase assay (33PanQinase® Activity Assay) was used for measuring the kinase activity of the two protein kinases. All kinase assays were performed in 96-well FlashPlatesTM from PerkinElmer (Boston, MA, USA) in a 50 μL reaction volume. The reaction cocktail was pipetted in 4 steps in the following order: 20 μL of assay buffer, 5 μL of ATP solution (in H2O), 5 μL of test compound (in 10% DMSO), 20 μL enzyme/subtrate mix. The assay for both protein kinases contained 70 mM HEPES-NaOH pH 7.5, 3 mM MgCl2, 3 mM MnCl2, 3 μM Na-orthovanadate, 1.2 mM DTT, ATP. The assay for ERBB2 additionally contained 50 μg/mLPEG20000. The reaction cocktails were incubated at 30 °C for 60 min. The reaction was stopped with 50 μL of 2% (v/v) H3PO4, plates were aspirated and washed two times with 200 μL 0.9% (w/v) NaCl. Incorporation of 33Pi was determined with a microplate scintillation counter (Microbeta, Wallac). All assays were performed with a BeckmanCoulter/SAGIAN™Core System. The median value of the counts in column 1 (n = 8) of each assay plate was defined as “low control”. This value reflects unspecific binding of radioactivity to the plate in the absence of a protein kinase but in the presence of the substrate. The median value of the counts in column 2 of each assay plate (n = 8) was taken as the “high control”. As part of the data evaluation the low control value from a particular plate was subtracted from the high control value as well as from all 80 “compound values” of the corresponding plate. The residual activity (in %) for each well of a particular plate was calculated by using the following formula: Res. Activity (%) = 100 × [(cpm of compound – low control)/(high control − low control)]

Another experiment has as its target T2, HER2 (Homo sapiens, UniProt P04626).
T2 construct: purchased ProQinase GmbH
Description: HER2 protein kinase assay (33PanQinase), single concentration. In kind it is biochemical. The settings on record: 0.5 μM (5 × 10^−7 M), singlicate, % of control activity; for remaining activity at 0.5 µM: read-out: Residual activity under 0.5 μM drug concentration (%) HER2. As to the method:
as §1, §2

As to `C=CC(=O)N1CC2(CCN(C)CC2)c2cc(OC)c(Nc3ncc(C#N)c(Nc4ccc(OCc5ccccc5)c(Cl)c4)n3)cc21` [Compound A3, 4-{[4-(benzyloxy)-3-chlorophenyl]amino}-2-{[5-methoxy-1′-methyl-1-(prop-2-enoyl)-1,2-dihydrospiro[indole-3,4′-piperidine]-6-yl]amino}pyrimidine-5-carbonitrile], the figures for the remaining activity at 0.5 µM at EGF-R wt and on HER2 were 19% and 12%, respectively.

For `C=CC(=O)N1CC2(CC2)c2cc(OC)c(Nc3ncc(C#N)c(Nc4cnn(Cc5ccccn5)c4)n3)cc21` [Compound B7, 3-{6′-[(5-cyano-4-{[1-(pyridin-2-ylmethyl)pyrazol-4-yl]amino}pyrimidin-2-yl)amino]-5′-methoxyspiro[cyclopropane-1,3′-indole]-1′-yl}-3-oxoprop-1-en-2-yl], the figures for the remaining activity at 0.5 µM at EGF-R wt and on HER2 were 89% and 135%, respectively.

`COc1cc2c(cc1Nc1ncc(C#N)c(Nc3ccc(OCc4ccccn4)c(Cl)c3)n1)N(C(=O)/C=C/CN(C)C)CC1(CC1)O2` [Compound C2, (2E)-4-{6-[(4-{[3-chloro-4-(pyridin-2-ylmethoxy)phenyl]amino}-5-cyanopyrimidin-2-yl)amino]-7-methoxyspiro[1,4-benzoxazine-2,1′-cyclopropane]-4-yl}-1-(dimethylamino)-4-oxobut-2-en-2-yl]: the results for the remaining activity at 0.5 µM at EGF-R wt and at HER2 were 76% and 108%, respectively.

As for `C=CC(=O)N1CC2(CC2)c2cc(OC)c(Nc3ncc(C#N)c(Nc4ccc(OCc5ccccn5)cc4)n3)cc21` [Compound B4, 3-{6′-[(5-cyano-4-{[4-(pyridin-2-ylmethoxy)phenyl]amino}pyrimidin-2-yl)amino]-5′-methoxyspiro [cyclopropane-1, 3′-indole]-1′-yl}-3-oxoprop-1-en-2-yl], the remaining activity at 0.5 µM amounted to 87% on EGF-R wt and 99% on HER2.

On to `COc1cc2c(cc1Nc1ncc(C#N)c(Nc3ccc(OCc4ccccn4)cc3)n1)N(C(=O)/C=C/CN(C)C)CC1(CC1)O2` [Compound C1, (2E)-4-{6-[(5-cyano-4-{[4-(pyridin-2-ylmethoxy)phenyl]amino}pyrimidin-2-yl)amino]-7-methoxyspiro[1,4-benzoxazine-2,1′-cyclopropane]-4-yl}-1-(dimethylamino)-4-oxobut-2-en-2-yl], for which the remaining activity at 0.5 µM turned out to be 86% on EGF-R wt and 100% on HER2.

For `CCOc1cc2ncc(C#N)c(Nc3ccc(OCc4ccccn4)c(Cl)c3)c2cc1NC(=O)/C=C/CN(C)C` [Neratinib, reference compound], the remaining activity at 0.5 µM on HER2 was found to be 6%.

On to `COc1cc2c(cc1Nc1ncc(C#N)c(Nc3ccc(OCc4ccccc4)c(Cl)c3)n1)N(C(=O)/C=C/CN(C)C)CC21CC1` [Compound B3, 4-{[4-(benzyloxy)-3-chlorophenyl]amino}-2-({1′-[(2E)-4-(dimethylamino)but-2-enoyl]-5′-methoxy-1′,2′-dihydrospiro[cyclopropane-1,3′-indole]-6′-yl}amino)pyrimidine-5-carbonitrile], for which the values for the remaining activity at 0.5 µM on EGF-R wt and at HER2 were 95% and 102%, respectively.

As for “(2E)-4-{6′-[(5-cyano-4-{[1-(pyridin-2-ylmethyl)pyrazol-4-yl]amino} pyrimidin-2-yl)amino]-5′-methoxyspiro[cyclopropane-1,3′-indole]-1′-yl}-1-(dimethylamino)-4-oxobut-2-en-2-yl trifluoroacetate [Compound B6]”, the “Residual activity under 0.5 μM drug concentration (%) EGF-R wt” value on EGF-R wt amounted to 94%. The “Residual activity under 0.5 μM drug concentration (%) HER2” value at HER2 was 113%.

`COc1cc2c(cc1Nc1ncc(C#N)c(Nc3ccc(OCc4ccccn4)cc3)n1)N(C(=O)/C=C/CN(C)C)CC21CC1` [Compound B1, (2E)-4-{6′-[(5-cyano-4-{[4-(pyridin-2-ylmethoxy)phenyl]amino}pyrimidin-2-yl)amino]-5′-methoxyspiro[cyclopropane-1,3′-indole]-1′-yl}-1-(dimethylamino)-4-oxobut-2-en-2-yl]: the remaining activity at 0.5 µM was 92% at EGF-R wt and 103% on HER2.

In the case of `COc1cc2c(cc1Nc1ncc(C#N)c(Nc3ccc(OCc4ccccn4)c(Cl)c3)n1)N(C(=O)/C=C/CN(C)C)CC21CC1` [Compound B2, (2E)-4-{6′-[(4-{[3-chloro-4-(pyridin-2-ylmethoxy)phenyl]amino}-5-cyanopyrimidin-2-yl)amino]-5′-methoxyspiro[cyclopropane-1,3′-indole]-1′-yl}-1-(dimethylamino)-4-oxobut-2-en-2-yl], the remaining activity at 0.5 µM stood at 97% on EGF-R wt and 100% at HER2.

As for `C=CC(=O)N1CC2(CCN(C)CC2)c2cc(OC)c(Nc3ncc(C#N)c(Nc4cnn(Cc5ccccn5)c4)n3)cc21` [Compound A4, 2-{[5-methoxy-1′-methyl-1-(prop-2-enoyl)-1,2-dihydrospiro[indole-3,4′ -piperidine]-6-yl]amino}-4-{[1-(pyridin-2-ylmethyl)-1H-pyrazol-4-yl]amino}pyrimidine-5-carbonitrile], on EGF-R wt, the “Residual activity under 0.5 μM drug concentration (%) EGF-R wt” value is 27% and the remaining activity at 0.5 µM lay in the range of 20 to 60%. In addition, at HER2, the remaining activity at 0.5 µM was 34%.

As for `COc1cc2c(cc1Nc1ncc(C#N)c(Nc3ccc(OCc4ccccc4)c(Cl)c3)n1)N(C(=O)/C=C/CN(C)C)CC1(CC1)O2` [Compound C3, (2E)-4-{6-[(4-{[4-(benzyloxy)-3-chlorophenyl]amino}-5-cyanopyrimidin-2-yl)amino]-7-methoxyspiro[1,4-benzoxazine-2,1′-cyclopropane]-4-yl}-1-(dimethylamino)-4-oxobut-2-en-2-yl], the remaining activity at 0.5 µM is 79% on EGF-R wt and 111% at HER2.

Take `COc1cc2c(cc1Nc1ncc(C#N)c(Nc3cnn(Cc4ccccn4)c3)n1)N(C(=O)/C=C/CN(C)C)CC1(CC1)O2` [Compound C4, (2E)-4-{6-[(5-cyano-4-{[1-(pyridin-2-ylmethyl)pyrazol-4-yl]amino}pyrimidin-2-yl)amino]-7-methoxyspiro[1,4-benzoxazine-2,1′-cyclopropane]-4-yl}-1-(dimethylamino)-4-oxobut-2-en-2-yl]: the remaining activity at 0.5 µM on EGF-R wt stood at 85%; at HER2, 100%.
